How the values were obtained:
Format in all cases: cell-based, human
MCF-7 cells [1] = assay: Differential pulse voltammetry (DPV) response of MCF-7 cells attached on SiNW-based biosensor after drug treatment; details: for Absolute DPV current peak: about 2 nano-mole per liter MBZ; for Absolute DPV: about 10.5 nano-mole per liter MBZ
Description: For DPV measurement, a derivative of linear sweep voltammetry, with a series of regular voltage pulses superimposed on the potential linear sweep. The current may be sampled twice, just before the pulse application and again, late in the pulse lifetime. The current may be measured immediately before each potential change, then the current difference may be plotted as a function of potential. By sampling the current just before the potential was changed, the effect of the charging current may be decreased. In this example, the effect of Mebendazole (MBZ), which is an antitubulin drug that induces tubulin depolymerization in cancer cells, may be investigated via an exemplary electrochemical method of the present disclosure. The MCF-7 cells attached on SiNWs of an exemplary biosensor of the present disclosure may be treated with different doses of MBZ and the electrochemical response of an individual non-treated (hereinafter “CTRL”) cell and treated cells may be monitored. Accordingly, exemplary MCF-7 cell lines isolated from grade I human breast tumors may be used as cancer cells. The MCF-7 cells may be maintained in a CO2 incubator containing about 5% CO2 and at a temperature of about 37° C. in a RPMI-1640 medium supplemented with a 5% fetal bovine serum, and 1% penicillin/streptomycin. The fresh medium may be replaced every other day. Prior to each experiment, cells may be trypsinized to be detached from the substrate and re-suspended on the SiNW electrodes of an exemplary biosensor of the present disclosure. To minimize the effect of trypsinization, the procedure may be done in less than about 4 minutes at a room temperature of about 20° C. to about 22° C. The biosensor including the attached cells may be held in an incubator for about 4 hours to achieve cells attachment on the SiNWs. Then the MBZ drug with a low concentration (about 2 nano-mole per liter) and with a high concentration (about 10.5 nano-mole per liter) may be added to the cells. […]

MCF-7 cells [2] = assay: Cell cycle progression of drug treated MCF-7 cells by flowcytometry analysis
Experimental: Accordingly, exemplary MCF-7 cell lines isolated from grade I human breast tumors may be used as cancer cells. The MCF-7 cells may be maintained in a CO2 incubator containing about 5% CO2 and at a temperature of about 37° C. in a RPMI-1640 medium supplemented with a 5% fetal bovine serum, and 1% penicillin/streptomycin. The fresh medium may be replaced every other day. Prior to each experiment, cells may be trypsinized to be detached from the substrate and re-suspended on the SiNW electrodes of an exemplary biosensor of the present disclosure. To minimize the effect of trypsinization, the procedure may be done in less than about 4 minutes at a room temperature of about 20° C. to about 22° C. The biosensor including the attached cells may be held in an incubator for about 4 hours to achieve cells attachment on the SiNWs. Then the MBZ drug with a low concentration (about 2 nano-mole per liter) and with a high concentration (about 10.5 nano-mole per liter) may be added to the cells. The signal recording and biological assays may be investigated at about 2, 6 and 10 hours after addition of the drug. In addition, cell cycle progression for CTRL and drug treated MCF-7 cells may be determined by flowcytometry analysis that are shown in FIG. 9A (for CTRL cells), FIG. 9B (for treated cells with about 2 nano-mole per liter of MBZ) and FIG. 9C (for treated cells with about 10.5 nano-mole per liter of MBZ). The cell's fractions in apoptotic (part 901), G0/G1 (part 902), S (part 903) and G2/M (part 904) cycles are observable in all of panels. Also, the state of counted cells for each of these three situations is represented at the Right side of the figures. […] But, proportion of G0/G1 fraction (part 902) was changed in MBZ incubated samples. The peak of G0/G1 was about 1300 in CTRL sample (FIG. 9A) meanwhile it was reduced to about 800 in MBZ (about 2 nano-mole per liter) treated cells (FIG. 9B). The result can be confirmed by side scatter versus forward scatter (SSC-FSC) diagram as a strong sign of cells granularity (represented at Right side of FIGS. 9A, 9B and 9C). […] By increasing the dose of MBZ to about 10.5 nM (FIG. 9C), apoptotic behavior (part 901) of the cells was affected. […] Such disorders in the cycle of the cells after MBZ treatment would be well demanded by affected anodic/cathodic response of the cells measured by SiNWs electrodes.

MCF-7 cells [3] = assay: Cyclic voltammetry (CV) response of MCF-7 cells attached on SiNW-based biosensor after drug treatment
Description: For CV characterization, three-electrode electrochemical cyclic voltammetry may be performed using the electrochemical workstation. Instead of the system electrodes, the SiNW-based biosensor including integrated SiNW electrodes may be used that is designed and fabricated pursuant to the teachings of the present disclosure. CV assay may be performed between the integrated SiNW covered working electrode 103 and counter electrode 104, with an on chip reference electrode 105 (represented in FIGS. 1 and 5A). The reference electrode may be initially calibrated by an Ag/AgCl reference electrode in a solution of about 1 mM ferrocene carboxylic acid with about 1 mM potassium chloride. CV studies may be performed using DC voltage and applying no AC frequency. For CV data recording, measurements may be carried out at about −0.8 V to 0.8 V at a scan rate of about 100 mv/s. In this example, the effect of Mebendazole (MBZ), which is an antitubulin drug that induces tubulin depolymerization in cancer cells, may be investigated via an exemplary electrochemical method of the present disclosure. The MCF-7 cells attached on SiNWs of an exemplary biosensor of the present disclosure may be treated with different doses of MBZ and the electrochemical response of an individual non-treated (hereinafter “CTRL”) cell and treated cells may be monitored. […]

[4] = about 2 nano-mole per liter MBZ

COC(=O)Nc1nc2ccc(C(=O)c3ccccc3)cc2[nH]1 [MBZ, Mebendazole]
Absolute DPV current peak (MCF-7 cells [1]; 2 hours after treatment (CTRL about 5 nA)): about 300 nA | Absolute DPV current peak (MCF-7 cells [1]; about 12 hours after treatment): about 900 nA | Absolute DPV (MCF-7 cells [1]; 12 hours): about 2000 nA | Absolute DPV (MCF-7 cells [1]; after 2 hours): about 1400 | amount of the cells in G0/G1 phase (MCF-7 cells [2]; about 10.5 nM MBZ, similar time): sharper reduction | G2/M fraction relative to CTRL (MCF-7 cells [2]; [4]): less than half | apoptotic behavior of MCF-7 cells (MCF-7 cells [2]; [4]): did not induce the apoptotic behavior | peak of G0/G1 (MCF-7 cells [2]; about 2 nano-mole per liter MBZ (CTRL about 1300)): about 800 | apoptotic cells with hypodiploid DNA (subG1 fraction) (MCF-7 cells [2]; about 2 nano-mole per liter MBZ, compared with CTRL sample): slightly increased | anodic and cathodic spikes in CV diagrams (MCF-7 cells [3]; MBZ about 2 and about 10.5 nano-mole per liter, 2 hours after drug incubation, MCF-7 on SiNW electrodes): Both anodic and cathodic spikes may be observed | height of the CV spikes (MCF-7 cells [3]; MBZ dose increased to about 10.5 nano-mole per liter, versus about 2 nano-mole per liter): increased by nearly three orders

From patent US20200209181A1, “ELECTROCHEMICAL METHOD AND DEVICE FOR DETECTING THE EFFECT OF ANTICANCER DRUGS” (Nano Hesgarsazan Salamat Arya, priority 2016, published 2020)
